Source: patent US11564969B2, “Immunorhelin compounds for intracellular infections” (ISR IMMUNE SYSTEM REGULATION HOLDING AB (PUBL), priority 2017, dated 2023)
Square brackets hold non-standard residues; d marks the D form. Peptide text beside a SMILES is read from it. * marks the point of attachment. dHis(τ-Bn) = N[C@H](Cc1cn(Cc2ccccc2)cn1)C(=O)O; d2Nal = N[C@H](Cc1ccc2ccccc2c1)C(=O)O; pGlu = O=C1CC[C@@H](C(=O)O)N1; tBu = CC(C)(C)*

Legend:
[1] = Solubility analysis in PBS (Analysis Method B); assay type: physicochemical; settings: pH 7.4
Method: The solubility of compounds of the invention was tested as described in the general methods. Solubility was then graded according to a rating between 1 to 5, where 1 is most soluble and 5 is least soluble.

GnRHR = biological target: T1, GnRHR (Homo sapiens, UniProt P30968); settings: 1000.0
T1 sequence (P30968 1-328): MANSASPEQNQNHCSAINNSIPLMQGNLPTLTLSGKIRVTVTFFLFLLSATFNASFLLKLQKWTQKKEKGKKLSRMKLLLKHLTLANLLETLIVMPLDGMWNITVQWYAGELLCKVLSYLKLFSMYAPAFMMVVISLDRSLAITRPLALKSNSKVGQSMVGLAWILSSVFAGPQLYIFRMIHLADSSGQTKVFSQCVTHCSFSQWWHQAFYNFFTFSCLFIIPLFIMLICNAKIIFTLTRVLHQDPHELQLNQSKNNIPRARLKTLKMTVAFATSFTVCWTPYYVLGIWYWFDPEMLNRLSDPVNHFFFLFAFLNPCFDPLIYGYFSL

CD4+ and CD8+ T cells = assay: MHC class I expression on T cells after stimulation of PBMCs, flow cytometry; assay type: cell-based, human; settings: PBMCs from healthy donor, with IL-2, 72 hours
Method: FIG. 1: Expression of MHC class I after stimulation of T cells with increasing concentrations of GnRH II. PBMCs from a healthy donor was stimulated with GnRH II and IL-2 for 72 hours. Data points represent mean fluorescent intensity of MCH class I expression on CD4^+ T cells (blue triangles) or CD8^+ T cells (black squares) measured with flow cytometry. Human peripheral blood mononuclear cells (PBMCs) were purified from healthy donors with Ficoll-Hypaque density centrifugation. Cells were cultured in RPMI-1640 medium (Invitrogen) supplemented with 10% fetal bovine serum, 100 μg/mL ampicilin and 100 μg/mL streptomycin for 24-72 hours in 37° C., 5% CO2. Cells were stimulated with a compound according to the invention and analysed for expression of cell specific surface markers and […] (monoclonal antibodies from BD Pharmingen) with flow cytomtery.

Row | Structure (SMILES) | Solubility grading [1] | GNRHR Stimulation at 1 μM (GnRHR) [percentage] | MHC class I expression on T cells (CD4+ and CD8+ T cells)
1 | NC(=O)CNC(=O)[C@@H]1CCCN1C(=O)[C@H](Cc1ccc(O)cc1)NC(=O)[C@H](Cc1c[nH]c2ccccc12)NC(=O)[C@@H](Cc1ccc2ccccc2c1)NC(=O)[C@H](Cc1c[nH]cn1)NC(=O)[C@H](CO)NC(=O)[C@H](Cc1c[nH]c2ccccc12)NC(=O)[C@H](Cc1c[nH]cn1)NC(=O)[C@@H]1CCC(=O)N1 [Compound 33, pGlu-His-Trp-Ser-His-D-Nal-Trp-Tyr-Pro-Gly-amide] ([pGlu]HWSH[d2Nal]WYPG-NH2) | 2 | 67 | 
2 | NC(=O)CNC(=O)[C@@H]1CCCN1C(=O)[C@H](Cc1ccc(O)cc1)NC(=O)[C@H](Cc1c[nH]c2ccccc12)NC(=O)CNC(=O)[C@H](Cc1c[nH]cn1)NC(=O)[C@H](CO)NC(=O)[C@H](Cc1c[nH]c2ccccc12)NC(=O)[C@H](Cc1c[nH]cn1)NC(=O)[C@@H]1CCC(=O)N1 [GnRH II] ([pGlu]HWSHGWYPG-NH2) |  |  | directly activates these cells
3 | CC(C)C[C@H](NC(=O)[C@@H](Cc1ccc2ccccc2c1)NC(=O)[C@H](Cc1c[nH]cn1)NC(=O)[C@H](CO)NC(=O)[C@H](Cc1c[nH]c2ccccc12)NC(=O)[C@H](Cc1c[nH]cn1)NC(=O)[C@@H]1CCC(=O)N1)C(=O)N[C@@H](CCCNC(=N)N)C(=O)N1CCC[C@H]1C(=O)NCC(N)=O [Compound 23, pGlu-His-Trp-Ser-His-D-Nal-Leu-Arg-Pro-Gly-amide] ([pGlu]HWSH[d2Nal]LRPG-NH2) | 1 | 106 | 
4 | CCNC(=O)[C@@H]1CCCN1C(=O)[C@H](Cc1ccc(O)cc1)NC(=O)[C@H](CC(C)C)NC(=O)[C@@H](COC(C)(C)C)NC(=O)[C@H](Cc1ccc(O)cc1)NC(=O)[C@H](CO)NC(=O)[C@H](Cc1c[nH]c2ccccc12)NC(=O)[C@H](Cc1c[nH]cn1)NC(=O)[C@@H]1CCC(=O)N1 [Compound 9, pGlu-His-Trp-Ser-Tyr-D-Ser(tBu)-Leu-Tyr-Pro-NHEt] ([pGlu]HWSY[dS](tBu)LYP-NHEt) | 1 | 78 | 
5 | CCNC(=O)[C@@H]1CCCN1C(=O)[C@H](Cc1ccc(O)cc1)NC(=O)[C@H](CC(C)C)NC(=O)[C@@H](COC(C)(C)C)NC(=O)[C@H](Cc1c[nH]cn1)NC(=O)[C@H](CO)NC(=O)[C@H](Cc1c[nH]c2ccccc12)NC(=O)[C@H](Cc1c[nH]cn1)NC(=O)[C@@H]1CCC(=O)N1 [Compound 11, pGlu-His-Trp-Ser-His-D-Ser(tBu)-Leu-Tyr-Pro-NHEt] ([pGlu]HWSH[dS](tBu)LYP-NHEt) | 1 | 76 | 
6 | CCNC(=O)[C@@H]1CCCN1C(=O)[C@H](CCCNC(=N)N)NC(=O)[C@H](Cc1c[nH]c2ccccc12)NC(=O)[C@@H](COC(C)(C)C)NC(=O)[C@H](Cc1ccc(O)cc1)NC(=O)[C@H](CO)NC(=O)[C@H](Cc1c[nH]c2ccccc12)NC(=O)[C@H](Cc1c[nH]cn1)NC(=O)[C@@H]1CCC(=O)N1 [Compound 8, pGlu-His-Trp-Ser-Tyr-D-Ser(tBu)-Trp-Arg-Pro-NHEt] ([pGlu]HWSY[dS](tBu)WRP-NHEt) | 2 | 86 | 
7 | N=C(N)NCCC[C@H](NC(=O)[C@H](Cc1c[nH]c2ccccc12)NC(=O)[C@@H](Cc1ccc2ccccc2c1)NC(=O)[C@H](Cc1ccc(O)cc1)NC(=O)[C@H](CO)NC(=O)[C@H](Cc1c[nH]c2ccccc12)NC(=O)[C@H](Cc1c[nH]cn1)NC(=O)[C@@H]1CCC(=O)N1)C(=O)N1CCC[C@H]1C(=O)NCC(N)=O [Compound 24, pGlu-His-Trp-Ser-Tyr-D-Nal-Trp-Arg-Pro-Gly-amide] ([pGlu]HWSY[d2Nal]WRPG-NH2) | 5 | 87 | 
8 | CCNC(=O)[C@@H]1CCCN1C(=O)[C@H](Cc1ccc(O)cc1)NC(=O)[C@H](Cc1c[nH]c2ccccc12)NC(=O)[C@@H](COC(C)(C)C)NC(=O)[C@H](Cc1c[nH]cn1)NC(=O)[C@H](CO)NC(=O)[C@H](Cc1c[nH]c2ccccc12)NC(=O)[C@H](Cc1c[nH]cn1)NC(=O)[C@@H]1CCC(=O)N1 [Compound 13, pGlu-His-Trp-Ser-His-D-Ser(tBu)-Trp-Tyr-Pro-NHEt] ([pGlu]HWSH[dS](tBu)WYP-NHEt) | 3 | 87 | 

More lines, main results first:

Row | Solubility grading [1] | GNRHR Stimulation at 1 μM (GnRHR) [percentage] | Structure (SMILES) | MHC class I expression on T cells (CD4+ and CD8+ T cells)
9 | 2 | 102 | CCNC(=O)[C@@H]1CCCN1C(=O)[C@H](CCCNC(=N)N)NC(=O)[C@H](Cc1c[nH]c2ccccc12)NC(=O)[C@@H](Cc1cn(Cc2ccccc2)cn1)NC(=O)[C@H](Cc1c[nH]cn1)NC(=O)[C@H](CO)NC(=O)[C@H](Cc1c[nH]c2ccccc12)NC(=O)[C@H](Cc1c[nH]cn1)NC(=O)[C@@H]1CCC(=O)N1 [Compound 60, pGlu-His-Trp-Ser-His-D-Bhi-Trp-Arg-Pro-NHEt] ([pGlu]HWSH[dHis(τ-Bn)]WRP-NHEt) | 
10 | 4 | 77 | CCNC(=O)[C@@H]1CCCN1C(=O)[C@H](Cc1ccc(O)cc1)NC(=O)[C@H](Cc1c[nH]c2ccccc12)NC(=O)[C@@H](CC(C)C)NC(=O)[C@H](Cc1ccc(O)cc1)NC(=O)[C@H](CO)NC(=O)[C@H](Cc1c[nH]c2ccccc12)NC(=O)[C@H](Cc1c[nH]cn1)NC(=O)[C@@H]1CCC(=O)N1 [Compound 49, pGlu-His-Trp-Ser-Tyr-D-Leu-Trp-Tyr-Pro-NHEt] ([pGlu]HWSY[dL]WYP-NHEt) | 
11 | 5 | 77 | CCNC(=O)[C@@H]1CCCN1C(=O)[C@H](Cc1ccc(O)cc1)NC(=O)[C@H](Cc1c[nH]c2ccccc12)NC(=O)[C@@H](Cc1cn(Cc2ccccc2)cn1)NC(=O)[C@H](Cc1c[nH]cn1)NC(=O)[C@H](CO)NC(=O)[C@H](Cc1c[nH]c2ccccc12)NC(=O)[C@H](Cc1c[nH]cn1)NC(=O)[C@@H]1CCC(=O)N1 [Compound 63, pGlu-His-Trp-Ser-His-D-Bhi-Trp-Tyr-Pro-NHEt] ([pGlu]HWSH[dHis(τ-Bn)]WYP-NHEt) | 
12 | 2 | 118 | CCNC(=O)[C@@H]1CCCN1C(=O)[C@H](Cc1ccc(O)cc1)NC(=O)[C@H](CC(C)C)NC(=O)[C@@H](CC(C)C)NC(=O)[C@H](Cc1c[nH]cn1)NC(=O)[C@H](CO)NC(=O)[C@H](Cc1c[nH]c2ccccc12)NC(=O)[C@H](Cc1c[nH]cn1)NC(=O)[C@@H]1CCC(=O)N1 [Compound 48, pGlu-His-Trp-Ser-His-D-Leu-Leu-Tyr-Pro-NHEt] ([pGlu]HWSH[dL]LYP-NHEt) | 
13 | 1 | 119 | CCNC(=O)[C@@H]1CCCN1C(=O)[C@H](CCCNC(=N)N)NC(=O)[C@H](Cc1c[nH]c2ccccc12)NC(=O)[C@@H](CC(C)C)NC(=O)[C@H](Cc1c[nH]cn1)NC(=O)[C@H](CO)NC(=O)[C@H](Cc1c[nH]c2ccccc12)NC(=O)[C@H](Cc1c[nH]cn1)NC(=O)[C@@H]1CCC(=O)N1 [Compound 47, pGlu-His-Trp-Ser-His-D-Leu-Trp-Arg-Pro-NHEt] ([pGlu]HWSH[dL]WRP-NHEt) | 
14 | 5 | 50 | NC(=O)CNC(=O)[C@@H]1CCCN1C(=O)[C@H](Cc1ccc(O)cc1)NC(=O)[C@H](Cc1c[nH]c2ccccc12)NC(=O)[C@@H](Cc1c[nH]c2ccccc12)NC(=O)[C@H](Cc1ccc(O)cc1)NC(=O)[C@H](CO)NC(=O)[C@H](Cc1c[nH]c2ccccc12)NC(=O)[C@H](Cc1c[nH]cn1)NC(=O)[C@@H]1CCC(=O)N1 [Compound 64, pGlu-His-Trp-Ser-Tyr-D-Trp-Trp-Tyr-Pro-Gly-amide] ([pGlu]HWSY[dW]WYPG-NH2) | 
15 | 1 | 96 | CCNC(=O)[C@@H]1CCCN1C(=O)[C@H](CCCNC(=N)N)NC(=O)[C@H](CC(C)C)NC(=O)[C@@H](Cc1cn(Cc2ccccc2)cn1)NC(=O)[C@H](Cc1c[nH]cn1)NC(=O)[C@H](CO)NC(=O)[C@H](Cc1c[nH]c2ccccc12)NC(=O)[C@H](Cc1c[nH]cn1)NC(=O)[C@@H]1CCC(=O)N1 [Compound 56, pGlu-His-Trp-Ser-His-D-Bhi-Leu-Arg-Pro-NHEt] ([pGlu]HWSH[dHis(τ-Bn)]LRP-NHEt) | 
16 | 4 | 85 | CCNC(=O)[C@@H]1CCCN1C(=O)[C@H](Cc1ccc(O)cc1)NC(=O)[C@H](CC(C)C)NC(=O)[C@@H](Cc1cn(Cc2ccccc2)cn1)NC(=O)[C@H](Cc1ccc(O)cc1)NC(=O)[C@H](CO)NC(=O)[C@H](Cc1c[nH]c2ccccc12)NC(=O)[C@H](Cc1c[nH]cn1)NC(=O)[C@@H]1CCC(=O)N1 [Compound 59, pGlu-His-Trp-Ser-Tyr-D-Bhi-Leu-Tyr-Pro-NHEt] ([pGlu]HWSY[dHis(τ-Bn)]LYP-NHEt) | 
